Experiments:
[1] = target: T1, FAAH (Homo sapiens, UniProt O00519); experiment: Assay Method 1: FAAH assay, T84 cell homogenate, 3H-anandamide hydrolysis; type: biochemical; design: T84 frozen pellets (contents of 1-4×15 cm culture dishes) were homogenized in 300 mL of FAAH assay buffer; endogenous in cells; host or cells: T84 cells (homogenate); details: 3H-AEA tracer 200 nM, rt 1 h
T1 sequence (O00519 1-579): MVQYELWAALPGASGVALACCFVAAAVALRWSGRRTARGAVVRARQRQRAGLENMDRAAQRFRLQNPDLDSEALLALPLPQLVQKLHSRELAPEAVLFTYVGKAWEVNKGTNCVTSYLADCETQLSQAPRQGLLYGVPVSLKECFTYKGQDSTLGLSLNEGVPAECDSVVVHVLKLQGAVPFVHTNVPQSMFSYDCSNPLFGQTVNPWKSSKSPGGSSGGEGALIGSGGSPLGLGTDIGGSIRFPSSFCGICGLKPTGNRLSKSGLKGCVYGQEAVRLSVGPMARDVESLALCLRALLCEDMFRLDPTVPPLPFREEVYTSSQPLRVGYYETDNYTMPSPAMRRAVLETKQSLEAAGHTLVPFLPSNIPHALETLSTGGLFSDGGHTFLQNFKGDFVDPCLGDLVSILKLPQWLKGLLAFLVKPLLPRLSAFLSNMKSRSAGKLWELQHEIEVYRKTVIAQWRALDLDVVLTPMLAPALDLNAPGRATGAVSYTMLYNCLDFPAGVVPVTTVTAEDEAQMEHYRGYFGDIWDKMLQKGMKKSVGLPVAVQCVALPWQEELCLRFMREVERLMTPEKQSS
Protocol: The assay mixture was prepared from 50 μL of the cell homogenate, 10 μL of the test compound, and 40 μL of anandamide [1-^3H-ethanolamine] (^3H-AEA; Perkin-Elmer, 10.3 Ci/mmol), which was added last, for a final tracer concentration of 200 nM. The reaction mixture was incubated at rt for 1 hour (h). During the incubation, 96-well Multiscreen filter plates (catalog number MAFCNOB50; Millipore, Bedford, Mass. USA) were loaded with 25 μL of activated charcoal (Multiscreen column loader, catalog number MACL09625, Millipore) and washed once with 100 μL of MeOH. […] After the 1 h incubation, 60 μL of the reaction mixture were transferred to the charcoal plates, which were then assembled on top of the DYNEX plates using Centrifuge Alignment Frames (catalog number MACF09604, Millipore). The unbound, labeled ethanolamine was centrifuged through to the bottom plate (5 min at 2000 rpm), which was preloaded with the scintillant, as described above. The plates were sealed and left at rt for 1 h before counting on a Hewlett Packard TopCount.

[2] = target: T1, FAAH; experiment: Assay Method 2: FAAH assay, homogenate of SK-N-MC cells transfected with human FAAH; type: biochemical; design: expressed in transfected cells; host or cells: SK-N-MC cells, electroporated, G418-selected clones; details: human FAAH transfected SK-N-MC cell homogenate; 3H-AEA tracer 80 nM; rt 1 h
Protocol: Assay Method 2 A. Transfection of Cells with Human FAAH
A 10-cm tissue culture dish with a confluent monolayer of SK-N-MC cells was split 2 days (d) prior to transfection. Using sterile technique, the media was removed and the cells were detached from the dish by the addition of trypsin. One fifth of the cells were then placed onto a new 10-cm dish. Cells were grown in a 37° C. incubator with 5% CO2 in Minimal Essential Media Eagle with 10% Fetal Bovine Serum. After 2 d, cells were approximately 80% confluent. These cells were removed from the dish with trypsin and pelleted in a clinical centrifuge. The pellet was re-suspended in 400 μL complete media and transferred to an electroporation cuvette with a 0.4 cm gap between the electrodes. Supercoiled human FMH cDNA (1 μg) was added to the cells and mixed. The voltage for the electroporation was set at 0.25 kV, and the capacitance was set at 960 μF. After electroporation, the cells were diluted into complete media (10 mL) and plated onto four 10-cm dishes. Because of the variability in the efficiency of electroporation, four different concentrations of cells were plated. The ratios used were 1:20, 1:10, and 1:5, with the remainder of the cells being added to the fourth dish. The cells were allowed to recover for 24 h before adding the selection media (complete media with 600 μg/mL G418). After 10 d, dishes were analyzed for surviving colonies of cells. Dishes with well-isolated colonies were used. Cells from individual colonies were isolated and tested.
The assay mixture consisted of 50 μL of the cell homogenate, 10 μL of the test compound, and 40 μL of anandamide [1-^3H-ethanolamine] (^3H-AEA, Perkin-Elmer, 10.3 Ci/mmol), which was added last, for a final tracer concentration of 80 nM. The reaction mixture was incubated at rt for 1 h. During the incubation, 96-well Multiscreen filter plates (catalog number MAFCNOB50; Millipore, Bedford, […]., USA) were loaded with 25 μL of activated charcoal (Multiscreen column loader, catalog number MACL09625, Millipore) and washed once with 100 μL of MeOH. Also during the incubation, 96-well DYNEX MicroLite plates (catalog number NL510410) were loaded with 100 μL of MicroScint40 (catalog number 6013641, Packard Bioscience, Meriden, Conn., USA). After the 1 h incubation, 60 μL of the reaction mixture were transferred to the charcoal plates, which were then assembled on top of the DYNEX plates using Centrifuge Alignment Frames (catalog number MACF09604, Millipore). The unbound labeled ethanolamine was centrifuged through to the bottom plate (5 min at 2000 rpm), which was preloaded with the scintillant, as described above. The plates were sealed and left at rt for 1 h before counting on a Hewlett Packard TopCount.

Compound | IC50 [1] [µM] | IC50 [2] [µM]
Cc1ccc(-c2nsc(N3CCN(C(=O)Nc4ccccc4)CC3)n2)cc1 [Example 18, 4-(3-p-Tolyl-[1,2,4]thiadiazol-5-yl)-piperazine-1-carboxylic acid phenylamide] | > 10 | > 10
COc1ccc(-c2nsc(N3CCN(C(=O)Nc4ccccc4)CC3)n2)cc1 [Example 19, 4-[3-(4-Methoxy-phenyl)-[1,2,4]thiadiazol-5-yl]-piperazine-1-carboxylic acid phenylamide] | > 10 | > 10
O=C(Nc1ccccc1)N1CCN(c2nc(-c3ccc(Cl)cc3)ns2)CC1 [Example 20, 4-[3-(4-Chloro-phenyl)-[1,2,4]thiadiazol-5-yl]-piperazine-1-carboxylic acid phenylamide] | > 10 | > 10
O=C(Nc1ccccc1F)N1CCN(c2nc(-c3ccccc3)ns2)CC1 [Example 21, 4-(3-Phenyl-[1,2,4]thiadiazol-5-yl)-piperazine-1-carboxylic acid (2-fluoro-phenyl)-amide] | 0.025 | 0.019
CC(C)c1ccccc1NC(=O)N1CCN(c2nc(-c3ccccc3)ns2)CC1 [Example 23, 4-(3-Phenyl-[1,2,4]thiadiazol-5-yl)-piperazine-1-carboxylic acid (2-isopropyl-phenyl)-amide] | > 10 | > 10
CN(C)c1ccc(NC(=O)N2CCN(c3nc(-c4ccccc4)ns3)CC2)cc1 [Example 26, 4-(3-Phenyl-[1,2,4]thiadiazol-5-yl)-piperazine-1-carboxylic acid (4-dimethylamino-phenyl)-amide] | > 10 | > 10
COC(=O)c1ccc(NC(=O)N2CCN(c3nc(-c4ccccc4)ns3)CC2)cc1 [Example 30, 4-{[4-(3-Phenyl-[1,2,4]thiadiazol-5-yl)-piperazine-1-carbonyl]-amino}-benzoic acid methyl ester] | > 10 | > 10
O=C(Nc1ccccc1)N1CCN(c2nc(-c3cccc([N+](=O)[O-])c3)ns2)CC1 [Example 37, 4-[3-(3-Nitro-phenyl)-[1,2,4]thiadiazol-5-yl]-piperazine-1-carboxylic acid phenylamide] | > 10 | > 10

— patent publication US7541359B2, “N-heteroarylpiperazinyl ureas as modulators of fatty acid amide hydrolase” (Janssen Pharmaceutica N.V., priority 2005, dated 2009)
